Measurements reported in PubChem BioAssay AID264 (DTP/NCI, 2004).
Where “and” joins values, the source holds several entries; their conditions need not be identical. Equal entries are not always repeated. Inconclusive results are not listed.

System: nude mice, LX-1 lung xenograft intrarenal, tumor weight T/C
Test: NCI In Vivo Anticancer Drug Screen. Data for tumor model Human Lung LX-1 Xenograft (intrarenal inoculation) in NU/NU Swiss (nude) mice
Conditions: endpoint: mean tumor weight change, higher = larger tumour
Method in brief: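 In vivo, transplantable tumor; compound vs vehicle arms; tumor size measured; value = T/C.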

[1] = dose: 50.0 mg/kg/injection, schedule: Q01DX010 (sc), vehicle: saline with Tween-80
[2] = dose: 100.0 mg/kg/injection, schedule: Q01DX010 (sc), vehicle: saline with Tween-80
[3] = dose: 200.0 mg/kg/injection, schedule: Q01DX010 (sc), vehicle: saline with Tween-80
[4] = dose: 600.0 mg/kg/injection, schedule: Q04DX003 (sc), vehicle: water
[5] = dose: 1200.0 mg/kg/injection, schedule: Q04DX003 (sc), vehicle: water
[6] = dose: 50.0 mg/kg/injection, schedule: Q01DX010 (sc), vehicle: saline
[7] = dose: 100.0 mg/kg/injection, schedule: Q01DX010 (sc), vehicle: saline

In the case of OC(CBr)C(O)C(O)C(O)CBr (stereo not drawn), the T/C (dose: 15.0 mg/kg/injection, schedule: Q01DX010 (sc), vehicle: Klucel (hydroxypropylcellulose) (HPC)) is reported as 112 % of control, the T/C (dose: 60.0 mg/kg/injection, schedule: Q01DX010 (sc), vehicle: Klucel (hydroxypropylcellulose) (HPC)) is reported as 57 % of control and the T/C (dose: 200.0 mg/kg/injection, schedule: Q01DX010 (sc), vehicle: Klucel (hydroxypropylcellulose) (HPC)) is reported as 89 % of control. The T/C (dose: 400.0 mg/kg/injection, schedule: Q01DX010 (sc), vehicle: Klucel (hydroxypropylcellulose) (HPC)) was 96 % of control and the T/C (dose: 800.0 mg/kg/injection, schedule: Q01DX010 (sc), vehicle: Klucel (hydroxypropylcellulose) (HPC)) was 115 % of control.
O=C1C2CC=CCC2C(=O)N1SC(Cl)(Cl)Cl (stereo not drawn) was tested, and the T/C (dose: 6.25 mg/kg/injection, schedule: Q01DX010 (sc), vehicle: saline with Tween-80) was 102 % of control, the T/C (dose: 12.5 mg/kg/injection, schedule: Q01DX010 (sc), vehicle: saline with Tween-80) was 56 % of control and the T/C [1] was 64 % of control and 86 % of control. For the same compound, the T/C [2] was 76 % of control and the T/C [3] was 97 % of control.
Nc1ccn(C2OC(CO)C(O)C2O)c(=O)n1 (stereo not drawn) was tested, and the T/C (dose: 31.25 mg/kg/injection, schedule: Q01DX010 (sc), vehicle: water) was 73 % of control and 95 % of control, the T/C [4] was 47 % of control and the T/C (dose: 819.2 mg/kg/injection, schedule: Q04DX003 (sc), vehicle: water) was 46 % of control. For the same compound, the T/C (dose: 1024.0 mg/kg/injection, schedule: Q04DX003 (sc), vehicle: water) was 61 % of control, the T/C [5] was 34 % of control and the T/C (dose: 1280.0 mg/kg/injection, schedule: Q04DX003 (sc), vehicle: water) was 23 % of control. For the same compound, the T/C (dose: 1600.0 mg/kg/injection, schedule: Q04DX003 (sc), vehicle: water) was 20 % of control.
In the case of O=C1NC(O)c2ccccc2O1 (stereo not drawn), the T/C (dose: 300.0 mg/kg/injection, schedule: Q04DX003 (sc), vehicle: suspension in saline) is reported as 102 % of control, the T/C (dose: 600.0 mg/kg/injection, schedule: Q04DX003 (sc), vehicle: suspension in saline) is reported as 79 % of control and the T/C (dose: 1200.0 mg/kg/injection, schedule: Q04DX003 (sc), vehicle: suspension in saline) is reported as 63 % of control. The T/C (dose: 2400.0 mg/kg/injection, schedule: Q04DX003 (sc), vehicle: suspension in saline) was 86 % of control.
CC[C@]1(O)C[C@H]2CN(CCc3c([nH]c4ccccc34)[C@@](C(=O)OC)(c3cc4c(cc3OC)N(C)[C@H]3[C@@](O)(C(=O)OC)[C@H](OC(C)=O)[C@]5(CC)C=CCN6CC[C@]43[C@@H]65)C2)C1 was tested, and the T/C (dose: 0.25 mg/kg/injection, schedule: Q01DX010 (sc), vehicle: saline) was 52 % of control, the T/C (dose: 1.0 mg/kg/injection, schedule: Q01DX010 (sc), vehicle: saline) was 68 % of control and the T/C (dose: 2.0 mg/kg/injection, schedule: Q01DX010 (sc), vehicle: saline) was 28 % of control.
For C[CH2][Sn]([CH2]C)([O]S(C)(=O)=O)[O]S(C)(=O)=O, the T/C (dose: 3.13 mg/kg/injection, schedule: Q04DX003 (sc), vehicle: saline with Tween-80) was 107 % of control, the T/C (dose: 6.25 mg/kg/injection, schedule: Q04DX003 (sc), vehicle: saline with Tween-80) was 109 % of control and the T/C (dose: 12.5 mg/kg/injection, schedule: Q04DX003 (sc), vehicle: saline with Tween-80) was 102 % of control. The T/C (dose: 25.0 mg/kg/injection, schedule: Q04DX003 (sc), vehicle: saline with Tween-80) was 99 % of control.
For CC(=O)OC1=NC(C)c2c1cc(OC(C)=O)[nH]c2=O (stereo not drawn), the T/C (dose: 150.0 mg/kg/injection, schedule: Q04DX003 (sc), vehicle: Klucel (hydroxypropylcellulose) (HPC)) was 90 % of control, the T/C (dose: 300.0 mg/kg/injection, schedule: Q04DX003 (sc), vehicle: Klucel (hydroxypropylcellulose) (HPC)) was 87 % of control and the T/C (dose: 600.0 mg/kg/injection, schedule: Q04DX003 (sc), vehicle: Klucel (hydroxypropylcellulose) (HPC)) was 87 % of control. The T/C (dose: 1200.0 mg/kg/injection, schedule: Q04DX003 (sc), vehicle: Klucel (hydroxypropylcellulose) (HPC)) was 74 % of control.
With c1cc2n(n1)CCN2 the T/C [6] was 90 % of control and 233 % of control, the T/C [7] was 117 % of control and 124 % of control and the T/C (dose: 200.0 mg/kg/injection, schedule: Q01DX010 (sc), vehicle: saline) was 35 % of control. The T/C (dose: 333.33 mg/kg/injection, schedule: Q04DX003 (ip), vehicle: saline) was 67 % of control.
In the case of Nc1nc(-c2cccc3ccccc23)cc2ccccc12, the T/C (dose: 100.0 mg/kg/injection, schedule: Q04DX003 (sc), vehicle: saline with Tween-80) is reported as 107 % of control, the T/C (dose: 200.0 mg/kg/injection, schedule: Q04DX003 (sc), vehicle: saline with Tween-80) is reported as 91 % of control and the T/C (dose: 400.0 mg/kg/injection, schedule: Q04DX003 (sc), vehicle: saline with Tween-80) is reported as 94 % of control. For the same compound, the T/C (dose: 800.0 mg/kg/injection, schedule: Q04DX003 (sc), vehicle: saline with Tween-80) was 53 % of control.
In the case of CC1(C)N=C(N)N=C(N)N1c1ccc(CCCCc2ccc(S(=O)(=O)F)cc2Cl)c(Cl)c1, the T/C (dose: 12.5 mg/kg/injection, schedule: Q01DX010 (sc), vehicle: saline) is reported as 78 % of control.
In the case of Nc1nc(=S)c2ncn(C3CC(O)C(CO)O3)c2[nH]1 (stereo not drawn), the T/C (dose: 0.31 mg/kg/injection, schedule: Q01DX010 (sc), vehicle: saline with Tween-80) is reported as 108 % of control, the T/C (dose: 0.63 mg/kg/injection, schedule: Q01DX010 (sc), vehicle: saline with Tween-80) is reported as 66 % of control and the T/C (dose: 1.25 mg/kg/injection, schedule: Q01DX010 (sc), vehicle: saline with Tween-80) is reported as 85 % of control. The T/C (dose: 2.5 mg/kg/injection, schedule: Q01DX010 (sc), vehicle: saline with Tween-80) was 83 % of control.
Cc1cn(C2CC(O)C(CO)O2)c(=O)[nH]c1=O (stereo not drawn) was tested, and the T/C (dose: 800.0 mg/kg/injection, schedule: Q04DX003 (sc), vehicle: saline) was 94 % of control, the T/C (dose: 1600.0 mg/kg/injection, schedule: Q04DX003 (sc), vehicle: saline) was 70 % of control and the T/C (dose: 3200.0 mg/kg/injection, schedule: Q04DX003 (sc), vehicle: saline) was 71 % of control. For the same compound, the T/C (dose: 6400.0 mg/kg/injection, schedule: Q04DX003 (sc), vehicle: saline) was 61 % of control.
CC1=C(O)C(=O)[C@@H]2O[C@@H]2C1=O was tested, and the T/C (dose: 1.25 mg/kg/injection, schedule: Q04DX003 (sc), vehicle: saline) was 103 % of control, the T/C (dose: 2.5 mg/kg/injection, schedule: Q04DX003 (sc), vehicle: saline) was 106 % of control and the T/C (dose: 5.0 mg/kg/injection, schedule: Q04DX003 (sc), vehicle: saline) was 160 % of control. The T/C (dose: 10.0 mg/kg/injection, schedule: Q04DX003 (sc), vehicle: saline) was 114 % of control.
In the case of COC1C(O)CC(OC2CC(OC3CC(O[C@@H]4C(=O)c5c(cc6cc(OC7CC(OC8CC(O)C(O)C(C)O8)C(O)C(C)O7)c(C)c(O)c6c5O)C[C@H]4[C@H](OC)C(=O)[C@@H](O)[C@@H](C)O)OC(C)C3O)OC(C)C2O)OC1C (stereo partly drawn), the T/C (dose: 0.18 mg/kg/injection, schedule: Q01DX010 (sc), vehicle: saline) is reported as 62 % of control and the T/C (dose: 0.37 mg/kg/injection, schedule: Q01DX010 (sc), vehicle: saline) is reported as 32 % of control.
With C1OC1CO[C@@H]1CO[C@H]2[C@@H]1OC[C@H]2OCC1CO1 (stereo partly drawn) the T/C [1] was 95 % of control, the T/C [2] was 80 % of control and the T/C [3] was 65 % of control.
CSC1SCC2C(=O)N(C)C(C(C)C)C(=O)OCC(NC(=O)c3cnc4ccccc4n3)C(=O)NC(C)C(=O)N(C)C1C(=O)N(C)C(C(C)C)C(=O)OCC(NC(=O)c1cnc3ccccc3n1)C(=O)NC(C)C(=O)N2C (stereo not drawn) was tested, and the T/C (dose: 15.0 micrograms/kg/injection, schedule: Q01DX010 (sc), vehicle: saline) was 97 % of control, the T/C (dose: 30.0 micrograms/kg/injection, schedule: Q01DX010 (sc), vehicle: saline) was 71 % of control and the T/C (dose: 60.0 micrograms/kg/injection, schedule: Q01DX010 (sc), vehicle: saline) was 48 % of control. The T/C (dose: 120.0 micrograms/kg/injection, schedule: Q01DX010 (sc), vehicle: saline) was 36 % of control and the T/C (dose: 240.0 micrograms/kg/injection, schedule: Q01DX010 (sc), vehicle: saline) was 65 % of control.
In the case of BrC1CC(Br)c2c1c1c(c3c2C(Br)CC3Br)C(Br)CC1Br (stereo not drawn), the T/C (dose: 300.0 mg/kg/injection, schedule: Q04DX003 (sc), vehicle: water) is reported as 46 % of control, the T/C [4] is reported as 43 % of control and the T/C [5] is reported as 29 % of control. For the same compound, the T/C (dose: 2400.0 mg/kg/injection, schedule: Q04DX003 (sc), vehicle: water) was 29 % of control.
For C=CS(=O)(=O)c1ccccc1, the T/C (dose: 25.0 mg/kg/injection, schedule: Q01DX010 (sc), vehicle: saline) was 57 % of control, the T/C [6] was 65 % of control and the T/C [7] was 29 % of control.
In the case of CCC[P+](c1ccccc1)(c1ccccc1)c1ccccc1, the T/C (dose: 37.5 mg/kg/injection, schedule: Q04DX003 (sc), vehicle: saline with Tween-80) is reported as 83 % of control, the T/C (dose: 75.0 mg/kg/injection, schedule: Q04DX003 (sc), vehicle: saline with Tween-80) is reported as 79 % of control and the T/C (dose: 150.0 mg/kg/injection, schedule: Q04DX003 (sc), vehicle: saline with Tween-80) is reported as 79 % of control.
